US7816371B2, “Bicycloheteroaryl compounds as P2X7 modulators and uses thereof” (Renovis, Inc., priority 2006, dated 2010)

Target: T1, P2X7 receptor (Homo sapiens, UniProt Q99572)
T1 construct: host or cells: THP-1 cells differentiated with LPS and IFN-γ
T1 sequence (Q99572 1-595): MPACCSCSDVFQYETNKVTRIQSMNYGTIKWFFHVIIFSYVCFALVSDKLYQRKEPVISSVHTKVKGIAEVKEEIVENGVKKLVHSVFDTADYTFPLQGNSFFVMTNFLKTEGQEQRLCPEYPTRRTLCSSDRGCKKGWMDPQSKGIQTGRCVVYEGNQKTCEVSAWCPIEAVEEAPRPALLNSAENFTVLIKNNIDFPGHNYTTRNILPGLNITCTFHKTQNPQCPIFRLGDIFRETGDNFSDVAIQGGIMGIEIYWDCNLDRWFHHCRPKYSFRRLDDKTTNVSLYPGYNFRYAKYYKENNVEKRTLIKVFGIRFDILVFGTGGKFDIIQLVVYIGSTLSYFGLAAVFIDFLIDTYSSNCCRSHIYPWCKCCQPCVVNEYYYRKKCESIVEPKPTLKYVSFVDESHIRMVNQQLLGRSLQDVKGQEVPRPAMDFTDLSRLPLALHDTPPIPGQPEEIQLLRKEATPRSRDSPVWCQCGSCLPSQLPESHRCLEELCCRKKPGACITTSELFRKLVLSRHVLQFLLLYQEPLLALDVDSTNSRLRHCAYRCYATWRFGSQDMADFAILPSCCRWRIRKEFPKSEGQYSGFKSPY
Assay: IL-1β release assay in differentiated THP-1 cells stimulated with BzATP (Example 9); % inhibition and IC50
Format: cell-based
Conditions: THP-1 cells differentiated with LPS and IFN-γ, 30 min pretreatment, BzATP 250 uM, IL-1β by ELISA
Description: The cells are then pretreated for 30 minutes with the compound of interest at the appropriate concentration in RPMI media containing 100 IU/mL penicillin, 100 ug/mL streptomycin. […] 30 uL of cell supernatant is then collected and IL-1β levels determined via ELISA (R&D systems Cat. # HSLB50) according to manufacturer's recommendations using the Tecan Safire plate reader. Background adjusted IL-1β levels of drug treated and non-treated cells are used to calculate the percent inhibition.
The compounds set forth in Table 1 were tested for activity in a cellular model as described herein.

| Compound | IC50 |
| --- | --- |
| CS(=O)(=O)c1ccc(CCC(=O)Nc2cccc3c(=O)n(CCO)ccc23)cc1 [Compound 71] | > 1000 nM |
| O=C(Cc1cc(Cl)ccc1C(F)(F)F)Nc1cccc2c(=O)n(CCO)ccc12 [Compound 68] | 720 nM |
| O=C(Cc1ccc(Cl)c(C(F)(F)F)c1)Nc1cccc2c(=O)n(C[C@H]3CCCN3)ccc12 [Compound 243] | 35.8 nM |
| C[C@H](CO)n1ccc2c(NC(=O)Cc3ccc(C(F)(F)F)c(F)c3)c(Cl)ccc2c1=O [Compound 375, N-[6-Chloro-2-((R)-2-hydroxy-1-methyl-ethyl)-1-oxo-1,2-dihydro-isoquinolin-5-yl]-2-(3-fluoro-4-trifluoromethyl-phenyl)-acetamide] | 4.65 nM |
| O=C(CCc1cc(C(F)(F)F)ccc1C(F)(F)F)Nc1cccc2c(=O)n(CCO)ccc12 [Compound 62] | 22.2 nM |
| O=C(Cc1ccc2c(c1)OCCO2)Nc1cccc2c(=O)n(CCO)ccc12 [Compound 63] | > 1000 nM |
| C[C@H](C(=O)Nc1cccc2c(=O)n([C@@H](C)CO)ccc12)c1ccc(Cl)c(Cl)c1 [Compound 326] | 122 nM |
| CC(C)(CO)n1ccc2c(NC(=O)Cc3ccc(Cl)c(C(F)(F)F)c3)cccc2c1=O [Compound 369, 2-(4-Chloro-3-trifluoromethyl-phenyl)-N-[2-(2-hydroxy-1,1-dimethyl-ethyl)-1-oxo-1,2-dihydro-isoquinolin-5-yl]-acetamide] | 15 nM |
| O=C(Cc1ccc(Cl)c(C(F)(F)F)c1)Nc1cccc2c(=O)n(C(CO)CO)ccc12 [Compound 81, 2-(4-Chloro-3-trifluoromethyl-phenyl)-N-[2-(2-hydroxy-1-hydroxymethyl-ethyl)-1-oxo-1,2-dihydro-isoquinolin-5-yl]-acetamide] | 27.8 nM |
| C[C@@H](CO)n1ccc2c(NC(=O)Cc3cccc(C(F)(F)F)c3F)cccc2c1=O [Compound 325] | 84.6 nM |
| C[C@@H](C(=O)Nc1cccc2c(=O)n([C@@H](C)C(N)=O)ccc12)c1ccc(Cl)cc1 [Compound 266] | 38.7 nM |
| CC(C(=O)Nc1cccc2c(=O)n(C(CO)CO)ccc12)c1ccc(Cl)cc1 (stereo not shown) [Compound 231] | 374 nM |
| C[C@H](CO)n1ccc2c(NC(=O)Cc3ccc(F)c(C(F)(F)F)c3)c(Cl)ccc2c1=O [Compound 377, N-[6-Chloro-2-((R)-2-hydroxy-1-methyl-ethyl)-1-oxo-1,2-dihydro-isoquinolin-5-yl]-2-(4-fluoro-3-trifluoromethyl-phenyl)-acetamide] | 0.38 nM |
| C[C@H](C(=O)Nc1cccc2c(=O)n([C@@H](C(N)=O)c3ccccc3)ccc12)c1ccc(Cl)c(Cl)c1 [Compound 278, (S)—N-[2-((R)-Carbamoyl-phenyl-methyl)-1-oxo-1,2-dihydro-isoquinolin-5-yl]-2-(3,4-dichloro-phenyl)-propionamide] | 58 nM |
| CC(C(=O)Nc1cccc2c(=O)n([C@H](C)C(N)=O)ccc12)c1ccc(Cl)c(Cl)c1 (stereo partly shown) [Compound 254] | 25.3 nM |
| CC(C)C[C@H](CO)n1ccc2c(NC(=O)Cc3ccc(Cl)c(C(F)(F)F)c3)cccc2c1=O [Compound 280] | 121 nM |
| O=C(Nc1cccc2c(=O)n(CCO)ccc12)c1ccc(C(F)(F)F)cc1C(F)(F)F [Compound 6] | 311 nM |
| C[C@H](C(=O)Nc1cccc2c(=O)n([C@H](C)CO)ccc12)c1ccc(Cl)c(Cl)c1 [Compound 321] | 13.4 nM |
| C[C@H](C(N)=O)n1ccc2c(NC(=O)[C@H](C)c3ccc(Cl)c(Cl)c3)cccc2c1=O [Compound 269] | 8.97 nM |
| O=C(Cc1ccc(Cl)c(Cl)c1)Nc1c(Cl)ccc2c(=O)n(CCO)ccc12 [Compound 248] | > 1000 nM |
| CC(C)(CO)n1ccc2c(NC(=O)Cc3ccc(C(F)(F)F)cc3)cccc2c1=O [Compound 363] | 167 nM |
| O=C(CCc1cc(C(F)(F)F)cc(C(F)(F)F)c1)Nc1cccc2c(=O)n(CCO)ccc12 [Compound 61] | > 1000 nM |
| C[C@H](CO)n1ccc2c(NC(=O)[C@H](C)c3ccc(Cl)c(Cl)c3)cccc2c1=O [Compound 320] | 9.54 nM |
| CNC(=O)[C@@H](C(C)C)n1ccc2c(NC(=O)[C@@H](C)c3ccc(Cl)cc3)cccc2c1=O [Compound 276, (R)-2-{5-[(S)-2-(4-Chloro-phenyl)-propionylamino]-1-oxo-1H-isoquinolin-2-yl}-3,N-dimethyl-butyramide] | 53.3 nM |
| C[C@H](C(=O)Nc1cccc2c(=O)n([C@H](C)C(N)=O)ccc12)c1ccc(Cl)c(Cl)c1 [Compound 268] | 3.92 nM |
| O=C(Cc1ccc(Cl)cc1C(F)(F)F)Nc1cccc2c(=O)n(CCO)ccc12 [Compound 229] | 187 nM |
| CC(C)(CO)n1ccc2c(NC(=O)Cc3ccc(Cl)c(Cl)c3)cccc2c1=O [Compound 371] | 157 nM |
| CC(C)(CO)n1ccc2c(NC(=O)Cc3cccc(C(F)(F)F)c3F)cccc2c1=O [Compound 368] | 60.3 nM |
| CC(C)(CO)n1ccc2c(NC(=O)Cc3ccc(C(F)(F)F)c(F)c3)cccc2c1=O [Compound 365] | 41.1 nM |

Results, then the compound that gave them:

| IC50 | Compound |
| --- | --- |
| 32.4 nM | C[C@H](C(N)=O)n1ccc2c(NC(=O)Cc3cc(F)c(F)c(F)c3)cccc2c1=O [Compound 381] |
| 5.07 nM | C[C@H](C(N)=O)n1ccc2c(NC(=O)Cc3ccc(C(F)(F)F)c(F)c3)cccc2c1=O [Compound 306] |
| 44.4 nM | C[C@H](C(N)=O)n1ccc2c(NC(=O)Cc3ccc(F)cc3F)cccc2c1=O [Compound 293] |
| 18.5 nM | C[C@H](C(N)=O)n1ccc2c(NC(=O)Cc3ccc(F)c(Br)c3)cccc2c1=O [Compound 307] |
| 13.6 nM | C[C@@H](C(N)=O)n1ccc2c(NC(=O)Cc3ccc(Cl)cc3F)cccc2c1=O [Compound 350] |
| 21.6 nM | C[C@H](C(N)=O)n1ccc2c(NC(=O)Cc3cccc(Cl)c3)cccc2c1=O [Compound 255] |
| 15.5 nM | C[C@H](C(N)=O)n1ccc2c(NC(=O)Cc3ccc(F)c(F)c3)cccc2c1=O [Compound 303] |
| 46.6 nM | C[C@@H](C(N)=O)n1ccc2c(NC(=O)Cc3ccc(Cl)c(Cl)c3)cccc2c1=O [Compound 236, (S)-2-{5-[2-(3,4-Dichloro-phenyl)-acetylamino]-1-oxo-1H-isoquinolin-2-yl}-propionamide] |
| > 1000 nM | C[C@H](C(N)=O)n1ccc2c(NC(=O)Cc3c(F)cccc3F)cccc2c1=O [Compound 292] |
| 53 nM | C[C@H](C(N)=O)n1ccc2c(NC(=O)Cc3ccc(-c4ccccc4)cc3)cccc2c1=O [Compound 289] |
| 13.3 nM | C[C@H](C(=O)Nc1cccc2c(=O)n([C@H](C)C(N)=O)ccc12)c1ccc(Cl)cc1 [Compound 263] |
| 66.9 nM | C[C@@H](C(N)=O)n1ccc2c(NC(=O)Cc3ccc(F)c(Cl)c3)cccc2c1=O [Compound 346] |
| 694 nM | C[C@H](C(N)=O)n1ccc2c(NC(=O)Cc3ccccc3Cl)cccc2c1=O [Compound 260] |
| 18.8 nM | CC(C(=O)Nc1cccc2c(=O)n([C@H](C)C(N)=O)ccc12)c1ccc(Cl)cc1 (stereo partly shown) [Compound 247] |
| 30.4 nM | C[C@H](C(N)=O)n1ccc2c(NC(=O)Cc3ccc(F)c(F)c3F)cccc2c1=O [Compound 379] |
| 48.9 nM | C[C@@H](C(N)=O)n1ccc2c(NC(=O)Cc3cccc(C(F)(F)F)c3F)cccc2c1=O [Compound 349] |
| 16.6 nM | C[C@H](C(N)=O)n1ccc2c(NC(=O)Cc3cccc(C(F)(F)F)c3)cccc2c1=O [Compound 297] |
